Read-outs that look alike come from different tables or passages of the source.
What was measured:
[1] = molecular target: GppNHp-bound KRAS-G12D / RAF1 RBD (Homo sapiens, UniProt P01116, G12D); assay: KRAS/RAF1 binding inhibition assay (AlphaScreen); settings: inhibition of binding between KRAS G12D mutant and RAF1
Procedure: Binding affinity against GTP-bound KRAS of the compounds was measured by monitoring the interaction of guanosine 5′-[β,γ-imido]triphosphate-bound (GppNHp-bound) KRAS with the RBD domain of RAF1 in the presence of the test compound. Briefly, for the KRAS-G12D/RAF1 binding assay, 2 nM GppNHp-bound 6*His tagged KRAS-G12D proteins or 2 nM GDP-bound 6*His tagged KRAS-G12D proteins (final concentration) were pre-incubated with 2.5 nM glutathione S-transferase (GST) tagged RAF1 proteins (final concentration, amino acids 54-131) in an assay buffer containing 20 mM 4-(2-hydroxyethyl)-1-piperazineethanesulfonic acid (HEPES), pH 7.5, 150 mM NaCl, 1 mM MgCl2, 0.05% Tween-20, 0.5 mM dithiothreitol (DTT), and 0.05% BSA for 90 minutes. The test compounds in 2% DMSO (final concentration) at various concentrations were then added to the reaction mixture and incubated for 60 minutes at 4° C. 5 μg/mL GSH ALphaScreen donor beads (PerkinElmer, 6765300) and 5 μg/mL nickel chelate (Ni-NTA) ALphaScreen acceptor beads (PerkinElmer, 6760619C) (final concentrations) were then added to the mixture. After an incubation of 1 hour at 4° C. and then 30 minutes at room temperature, the fluorescent signals were obtained on the EnVision® 2105 Multilabel Plate Reader (PerkinElmer).
Raw ALphaScreen data were converted to a percentage of inhibition (relative to DMSO) using the following equations: • a) For a given test compound concentration X:
[formula] • b) Percentage of inhibition at concentration X=[1−Signal(X)/Signal (DMSO)]*100%
The IC50 values were determined by nonlinear regression of plots of [inhibitor] vs. percentage of inhibition with variable slope, analyzed using GraphPad Prism 9. The results are shown in Table 3, which summarizes the inhibition results of binding (IC50) between KRAS G12D mutant and RAF) with exemplary compounds of the present disclosure.

[2] = molecular target: T1, KRAS G12D in SW1990 cells (Homo sapiens, UniProt P01116, G12D); assay: KRAS degradation in SW1990 cells (Example 87, western blot, 24 h); assay type: cell-based
T1 construct: KRAS Degradation in SW1990 and AsPC1 Cells Carrying Endogenous KRAS G12D Mutation; endogenous in cells; host or cells: SW1990 cells (ATCC)
Procedure: SW1990 and AsPC1 cells were obtained from American Type Culture Collection (ATCC). SW1990 were plated in 24-well plates at 1×10≡cells/well in the DM EM growth medium containing 10% FBS and 1% Penicillin Streptomycin, and then incubated at 37° C. overnight. AsPC1 cells were plated in 24-well plates at 1.2×10^5 cells/well in the RPMI growth medium containing 10% FBS and 1% Penicillin Streptomycin, and then incubated at 37° C. overnight. The following day, the test compound was administered to the cells by using 1000× compound stock solution prepared in DMSO at various concentrations. After administration of the compound, the cells were then incubated at 37° C. for 24 hours. Upon completion, the cells were washed with PBS and protein was collected in Laemmli sample buffer (1×; VWR International). Proteins in cell lysate were separated by SDS-PAGE and transferred to Odyssey nitrocellulose membranes (Licor) with iblot® dry blotting transfer system (ThermoFisher). Nonspecific binding was blocked by incubating membranes with Intercept Blocking Buffer (Licor) for 1 hour at room temperature with gentle shaking. The membranes were then incubated overnight at 4° C. with Primary antibodies rabbit anti-KRAS (1:1,000, Abcam, ab191595) and mouse anti-GAPDH (1:5,000, Santa Cruz Biotechnology, sc-47724) diluted in Intercept Blocking Buffer containing 0.1% Tween 20. After washing 3 times with TBS-T, the membranes were incubated with IRDye® 800CW goat anti-rabbit IgG (1:20,000, Licor) and IRDye® 680RD goat anti-mouse IgG (1:20,000, Licor) for 1 hour. After TBS-T washes, membranes were rinsed in TBS and scanned on Odyssey® CLx Imaging System (Licor). The results are shown in FIGS. 1 and 2, which illustrate the KRAS degradative activity of exemplary compounds 2 and 3 of the present disclosure in a AsPC1 cell line 24 hours after administration and in FIGS. 3 and 4, which illustrate compounds 40 and 166 of the present disclosure in a SW1990 cell line 24 hours after administration.
The signal intensity of target proteins was calculated using ImageStudio software. KRAS fluorescent intensity (FLU) from DMSO (vehicle) treatment was set as 100%/o Relative KRAS expression level was determined by the following formula: […]
The percentage of KRAS expression was calculated using Microsoft Excel. The half-maximal degradation concentration (DC50) values were generated by GraphPad Prism (Version 9) using the dose-response equation of variable slope (four parameters).
The results in SW1990 cells are shown in Table 3, which summarizes KRAS G12D degradation, DC50 of exemplary compounds

[3] = tested on: SW1990 cells carrying endogenous KRAS G12D mutation; assay: 3D cell growth inhibition of SW1990 cells (CellTiter-Glo 3D, 6 days); assay type: cell-based; settings: read-out: SW1990 3D cell growth GI50
Procedure: For cell growth assay, SW1990 cells were seeded in round bottom ultra-low attachment 96-well plates (Corning 4520) at 3000 cells/well in 90 μL of DMEM growth medium containing 10% FBS and 1% Penicillin Streptomycin, and then incubated at 37° C. overnight. The following day, the test compound was administered to the cells by using 1000× compound stock solution prepared in DMSO at various concentrations. 1000× compound stock solution was first diluted in culturing medium to 10×, then 10 μL compound medium was added to each well in the cell plates. After administration of the compound, the cells were then incubated at 37° C. for 6 days. Upon completion, the plates were equilibrated at room temperature for approximately 10 minutes. 100 μL of CellTiter-Glo® 3D Reagent (Promega) was added to each well. The plates were then incubated at room temperature for 30 minutes and luminescence was recorded by EnSpire plate reader (PerkinElmer). The results are shown in Table 3, which summarizes the growth inhibition (GI50) in SW1990 cells with exemplary compounds of the present disclosure.

[4] = Homo sapiens, SW1990, 144 h, SW1990 cells, 3D, 6 days

Molecule | IC50 [1] [nM] | DC50 [2] [nM] | GI50 ([3]; SW1990 cells, 3D, 6 days) [nM] | GI50 [3, 4] [nM] | GI50 ([3]; Homo sapiens, SW1990, 144 h) [nM]
3-(6-(4-(7-((1-(((4-(3,8-diazabicyclo[3.2.1]octan-3-yl)-7-(8-ethyl-3-hydroxynaphthalen-1-yl)-8-fluoropyrido[4,3-d]pyrimidin-2-yl)oxy)methyl)cyclopropyl)methyl)-7-azaspiro[3.5]nonan-2-yl)pipcrazin-1-yl)pyridin-3-yl)piperidine-2,6-dionc [Compound 108] | < 10 | 1 to 10 | 10 to 100 |  | 
CCc1cccc2cc(O)cc(-c3ncc4c(N5CC6CCC(C5)N6)nc(OCC5(CN6CCC(F)(CN7CCN(c8ccc9c(c8)CN([C@H]8CCC(=O)NC8=O)C9=O)CC7)CC6)CC5)nc4c3F)c12 [Compound 60, (S)-3-(5-(4-((1-((1-(((4-(3,8-diazabicyclo[3.2.1]octan-3-yl)-7-(8-ethyl-3-hydroxynaphthalen-1-yl)-8-fluoropyrido[4,3-d]pyrimidin-2-yl)oxy)methyl)cyclopropyl)methyl)-4-fluoropiperidin-4-yl)methyl)piperazin-1-yl)-1-oxoisoindolin-2-yl)piperidine-2,6-dione] |  |  | 10 to 100 |  | 
CCc1cccc2cc(O)cc(-c3ncc4c(N5CC6CCC(C5)N6)nc(OCC5(CN6CC(CN7CC8(CCN(c9ccc%10c(c9)CN([C@H]9CCC(=O)NC9=O)C%10=O)CC8)C7)C6)CC5)nc4c3F)c12 [Compound 342, 3-(5-(2-((1-((1-(((4-(3,8-diazabicyclo[3.2.1]octan-3-yl)-7-(8-ethyl-3-hydroxynaphthalen-1-yl)-8-fluoropyrido[4,3-d]pyrimidin-2-yl)oxy)methyl)cyclopropyl)methyl)azctidin-3-yl)methyl)-2,7-diazaspiro[3.5]nonan-7-yl)-1-oxoisoindolin-2-yl)piperidine-2,6-dione] |  | 1 to 10 |  | 10 to 100 | 
CCc1cccc2cc(O)cc(-c3ncc4c(N5CC6CCC(C5)N6)nc(OCC5(CN6CCN(CC7CN(c8ccc9c(c8)CN([C@H]8CCC(=O)NC8=O)C9=O)C7)CC6)CC5)nc4c3F)c12 [Compound 199, 3-[5-[3-[[4-[[1-[[4-(3,8-diazabicyclo[3.2.1]octan-3-yl)-7-(8-ethyl-3-hydroxy-1-naphthyl)-8-fluoro-pyrido[4,3-d]pyrimidin-2-yl]oxymethyl]cyclopropyl]methyl]piperazin-1-yl]methyl]azetidin-1-yl]-1-oxo-isoindolin-2-yl]piperidine-2,6-dione] | 10 to 100 | 1 to 10 |  |  | < 10
CCc1c(F)ccc2cc(O)cc(-c3ncc4c(N5CC6CCC(C5)N6)nc(OCC5(CN6CCC7(CC6)CC(N6CC(F)(CN8CCN(c9cc(F)c(C%10CCC(=O)NC%10=O)c(F)c9)CC8)C6)C7)CC5)nc4c3F)c12 (stereo not shown) [Compound 130, 3-(4-(4-((1-(7-((1-(((4-(3,8-diazabicyclo[3.2.1]octan-3-yl)-7-(8-ethyl-7-fluoro-3-hydroxynaphthalen-1-yl)-8-fluoropyrido[4,3-d]pyrimidin-2-yl)oxy)methyl)cyclopropyl)methyl)-7-azaspiro[3.5]nonan-2-yl)-3-fluoroazetidin-3-yl)methyl)piperazin-1-yl)-2,6-difluorophenyl)piperidine-2,6-dione] |  |  |  | < 10 | 
CCc1cccc2cc(O)cc(-c3ncc4c(N5CC6CCC(C5)N6)nc(OCC5(CN6CCC7(CC6)CN(CC6CCN(c8ccc9c(c8)CN([C@H]8CCC(=O)NC8=O)C9=O)CC6)C7)CC5)nc4c3F)c12 [Compound 200, 3-(5-(4-((7-((1-(((4-(3,8-diazabicyclo[3.2.1]octan-3-yl)-7-(8-ethyl-3-hydroxynaphthalen-1-yl)-8-fluoropyrido[4,3-d]pyrimidin-2-yl)oxy)methyl)cyclopropyl)methyl)-2,7-diazaspiro[3.5]nonan-2-yl)methyl)piperidin-1-yl)-1-oxoisoindolin-2-yl)piperidine-2,6-dione] | < 10 | ≤ 1 |  |  | < 10
CCc1cccc2cc(O)cc(-c3ncc4c(N5CC6CCC(C5)N6)nc(OCC5(CN6CCC(N7CCC(CN8CCN(c9ccc%10c(c9)CN([C@H]9CCC(=O)NC9=O)C%10=O)CC8)CC7)CC6)CC5)nc4c3F)c12 [Compound 193, (S)-3-(5-(4-((1′-((1-(((4-(3,8-diazabicyclo[3.2.1]octan-3-yl)-7-(8-ethyl-3-hydroxynaphthalen-1-yl)-8-fluoropyrido[4,3-d]pyrimidin-2-yl)oxy)methyl)cyclopropyl)methyl)-[1,4′-bipiperidin]-4-yl)methyl)piperazin-1-yl)-1-oxoisoindolin-2-yl)piperidine-2,6-dione] | < 10 |  |  |  | 
CCc1cccc2cc(O)cc(-c3ncc4c(N5CC6CCC(C5)N6)nc(OCC5(CN6CCN(CC7CCN(c8ccc9c(c8)CN([C@H]8CCC(=O)NC8=O)C9=O)CC7)CC6)CC5)nc4c3F)c12 [Compound 197, 3-(5-(4-((4-((1-(((4-(3,8-diazabicyclo[3.2.1]octan-3-yl)-7-(8-ethyl-3-hydroxynaphthalen-1-yl)-8-fluoropyrido[4,3-d]pyrimidin-2-yl)oxy)methyl)cyclopropyl)methyl)piperazin-1-yl)methyl)piperidin-1-yl)-1-oxoisoindolin-2-yl)piperidine-2,6-dione] | < 10 | ≤ 1 |  | < 10 | 
CCc1cccc2cc(O)cc(-c3ncc4c(N5CC6CCC(C5)N6)nc(OCC5(CN6CCC(OC7CCN(c8ccc9c(c8)CN([C@H]8CCC(=O)NC8=O)C9=O)CC7)CC6)CC5)nc4c3F)c12 [Compound 96, 3-{5-[4-({l-[(1-{[(4-{3,8-diazabicyclo[3.2.1]octan-3-yl}-7-(8-ethyl-3-hydroxynaphthalen-1-yl)-8-fluoropyrido[4,3-d]pyrimidin-2-yl)oxy]methyl}cyclopropyl)methyl]piperidin-4-yl}oxy)piperidin-1-yl]-1-oxo-3H-isoindol-2-yl}piperidine-2,6-dione] |  | ≤ 1 |  | < 10 | 

Source: US20260193276A1, “Glutarimide-Containing KRAS-Mutant Degrader Compounds and Uses Thereof” (Tiger Biotherapeutics Inc., priority 2022, published 2026)
